Broadly, the Kd is a measure of binding affinity in units of concentration. The low end stands for tighter binding, the high end for weaker binding.

T1 sequence (P35462 whole entry): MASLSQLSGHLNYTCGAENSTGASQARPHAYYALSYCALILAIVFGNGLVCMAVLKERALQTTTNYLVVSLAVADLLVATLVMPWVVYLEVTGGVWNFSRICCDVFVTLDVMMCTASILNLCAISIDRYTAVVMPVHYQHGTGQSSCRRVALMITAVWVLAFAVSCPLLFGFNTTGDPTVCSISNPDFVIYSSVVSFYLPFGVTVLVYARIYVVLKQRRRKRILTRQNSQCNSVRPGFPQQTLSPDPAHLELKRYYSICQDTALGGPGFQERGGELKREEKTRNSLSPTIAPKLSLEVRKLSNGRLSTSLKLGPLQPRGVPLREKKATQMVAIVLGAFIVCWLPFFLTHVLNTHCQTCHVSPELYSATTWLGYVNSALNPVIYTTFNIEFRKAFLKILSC
T2 sequence (P14416 whole entry): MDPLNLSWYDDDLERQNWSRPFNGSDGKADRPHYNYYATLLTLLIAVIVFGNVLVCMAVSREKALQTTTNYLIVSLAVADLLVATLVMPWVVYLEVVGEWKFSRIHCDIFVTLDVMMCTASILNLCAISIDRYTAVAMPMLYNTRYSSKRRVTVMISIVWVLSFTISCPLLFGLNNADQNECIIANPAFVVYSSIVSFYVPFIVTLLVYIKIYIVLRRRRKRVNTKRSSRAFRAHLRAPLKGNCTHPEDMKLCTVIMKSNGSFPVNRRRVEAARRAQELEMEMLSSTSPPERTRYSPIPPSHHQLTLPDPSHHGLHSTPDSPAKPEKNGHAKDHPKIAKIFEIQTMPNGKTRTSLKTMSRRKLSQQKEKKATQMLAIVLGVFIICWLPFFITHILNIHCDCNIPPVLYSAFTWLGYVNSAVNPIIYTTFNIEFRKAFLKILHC

One assay addresses T1, human dopamine D3 receptor (Homo sapiens, UniProt P35462).
T1 construct: expressed in transfected cells; membranes
Description: binding to human D3 receptors expressed in CHO cells ([125I]-iodosulpride).
Conditions: not given
As for the experimental part: (§1) STUDY OF THE BINDING OF THE COMPOUNDS OF THE INVENTION TO HUMAN D2 AND D3 RECEPTORS EXPRESSED IN CHO CELLS
(§2) CHO (Chinese Hamster Ovary) cells were transfected in a stable manner by the gene coding for the human dopamine D2 or D3 receptor according to methods known from the literature. The native cells are deficient in the enzyme DHFR (DiHydroFolate Reductase). Those cells are cultured in a vessel at 37° C. in a humid atmosphere of 5% CO2 : 95% air. The transfections were carried out using Lipofectine (Gibco). The CHO cells, cotransfected with the human D2 receptor and the gene for resistance to phleomycin, were selected for their resistance to the presence of that antibiotic in the culture medium. The cells transfected with the human D3 receptor were selected in a medium lacking in hypoxanthine/thymidine, in the presence of methotrexate. The compositions of the culture media used are, for CHO--D2 : DMEM (Dulbecco's Modified Eagle Medium) supplemented with 10% foetal calf serum and hypoxanthine/thymidine and, for CHO--D3 : DMEM supplemented with 10% dialysed foetal calf serum. The confluent cells are harvested and the membranes are then prepared.
After a few minutes in the presence of 0.2% trypsin, the cells are recovered and centrifuged at 2000 g for 5 minutes. The cell mass, resuspended in […] tris-HCl buffer, pH 7.5, containing 5 mM MgSO4, is then […] over Polytron®. The homogenate is then centrifuged at 50 000 g for 15 minutes, and the mass is resuspended by gentle sonication in an incubation buffer of the following composition: 50 mM tris-HCl, pH 7.5, containing 120 mM NaCl, 5 mM KCl, 2 mM CaCl2 and 5 mM MgCl2. The membranes are then divided into aliquots and preserved at -80° C. until the day of the experiment.
The incubation is carried out in polypropylene tubes at a final volume of 400 μl containing:
100 μl of [^125 I]-iodosulpride (Amersham) at 0.1 and 0.2 nM for the D2 and D3 receptors respectively.
100 μl of buffer (total tubes)
100 μl of raclopride 10 μM (non-specific binding)
200 μl of membrane preparation containing the D2 or D3 receptors, in a buffer to which
0.2% BSA (bovine serum albumin) has been added.
(§3) The ranges of concentration of each compound include at least 7 points determined in triplicate; each experiment is repeated at least twice.
The incubation, which lasts 30 minutes at 30° C., is terminated by rapid filtration in a Brandle apparatus, followed by three consecutive washes with tris-HCl buffer, pH 7.4, containing 120 m M NaCl. The filters recovered are then counted with a gamma counter.
The IC50, which represents the concentration that gives a 50% inhibition of the binding of the radioligand, is calculated by non-linear regression (Prism Graph method). The Ki value is derived from the formula Ki=IC50 (1+L/Kd) where L is the concentration of [^125 I]-iodosulpride used in the experiment and Kd its dissociation constant. The results are expressed in the form of pKi (pKi=-logKi).
As to `CCCN[C@@H]1CCc2c(OC)cccc2[C@@H]1C` [AJ 76, [cis(+)-1S,2R]-5-methoxy-1-methyl-2-n-propylaminotetralin], the Ki is 69.2 nM.

Still in this assay, the particulars now being: [125I]-iodosulpride 0.2 nM, CHO cell membranes, 30 min at 30° C.; pKi=-logKi; read-out: pKi (human D3) (converted).
For the compound `NC1CCc2cc3c(cc2C1)OCC3` (stereo not drawn), the Ki was 158 nM.

In the case of `NC1CCc2cc3ccoc3cc2C1` (stereo not drawn), the Ki is 389 nM.

In the case of `CCOCCNC1CCc2cc3c(cc2C1)OCC3` (stereo not drawn), the Ki is 759 nM.

In the case of `FC(F)(F)CNC1CCc2cc3c(cc2C1)OCC3` (stereo not drawn), the Ki is 10000 nM.

For `CN(C)C1CCc2cc3c(cc2C1)OCC3` (stereo not drawn), the Ki is 209 nM.

As to `CN(CC1CCCCC1)C1CCc2cc3c(cc2C1)OCC3` (stereo not drawn), the Ki was 151 nM.

With `c1ccc(CNC2CCc3cc4c(cc3C2)OCC4)cc1` (stereo not drawn), the Ki was 1170 nM.

In the case of `CCCN(CCc1ccc(O)cc1)C1CCc2cc3c(cc2C1)OCC3` (racemic) [Example 3, (7RS)-7-{N-[2-(4-hydroxyphenyl)ethyl]-N-propylamino}-5,6,7,8-tetrahydronaphtho[2,3-b]2,3-dihydrofuran], the Ki is 2.24 nM.

Take `CCCN(CCc1ccc2c(c1)CC(=O)N2)C1CCc2cc3c(cc2C1)OCC3` (racemic) [Example 6, (7RS)-7-{N-[2-((3H)-indol-2-on-5-yl)ethyl]-N-propylamino}-5,6,7,8-tetrahydronaphtho[2,3-b]2,3-dihydrofuran]: the Ki was 1.15 nM.

As for `CCCN(CCCc1ccc2c(c1)CC(=O)N2)C1CCc2cc3c(cc2C1)OCC3` (racemic) [Example 7, (7RS)-7-{N-[3-((3H)-indol-2-on-5-yl)propyl]-N-propylamino}-5,6,7,8-tetrahydronaphtho[2,3-b]2,3-dihydrofuran], the Ki was 3.47 nM.

On to `CCCN(CCCc1ccc(NC(C)=O)cc1)C1CCc2cc3c(cc2C1)OCC3` (racemic) [Example 13], for which the Ki is 3.55 nM.

Staying with this assay, now noted: human D3 vs D2 binding.
As for `CCCN[C@@H]1CCc2c(OC)cccc2[C@@H]1C` [AJ 76, [cis(+)-1S,2R]-5-methoxy-1-methyl-2-n-propylaminotetralin], the “selectivity for the D3 receptor compared with the D2 receptor” value was found to be 2.

Staying with this assay, now noted: radioligand dissociation constant used in Ki formula.
For [^125 I]-iodosulpride, the Kd worked out at 1.31 nM.

Another assay addresses T2, human dopamine D2 receptor (Homo sapiens, UniProt P14416).
T2 construct: expressed in transfected cells; membranes
Briefly: binding to human D2 receptors expressed in CHO cells ([125I]-iodosulpride). The conditions noted are these: radioligand dissociation constant used in Ki formula. As for the experimental part:
as §1
as §2, with “The compositions of the culture media used are, for CHO--D2 : DMEM (Dulbecco's Modified Eagle Medium) supplemented with 10% foetal calf serum and hypoxanthine/thymidine and, for CHO--D3 : DMEM supplemented with 10% dialysed foetal calf serum. The confluent cells are harvested and the membranes are then prepared.” left out
as §3
The incubation, which lasts 30 minutes at 30° C., is terminated by rapid filtration in a Brandle apparatus, followed by three consecutive washes with tris-HCl buffer, pH 7.4, containing 120 m M NaCl. The filters recovered are then counted with a gamma counter. […]
[^125 I]-iodosulpride showed a Kd of 0.5 nM.

Source of the values: patent US5665765A, “5,6,7,8-tetrahydronaphtho[2,3-b]furan and indano[5,6-b]furan amine compounds” (Adir et Compagnie, priority 1995, dated 1997).
